Experiment [1] has as its system CaM. The conditions noted are these: α-family; ref [34],[49]; cited from earlier work.
Experiment [2] has as its system electrical uncoupling (gap junctions), amphibian embryonic cells, crayfish axons. The following applies: cited from earlier work; for effect on uncoupling: Xenopus embryonic cells, ref [73], crayfish axons, ref [74],[75].
For experiment [3], the target named is T1, CaM (Rattus norvegicus, UniProt P0DP29). The conditions noted are these: earlier connexin peptide studies; ref [49]; cited from earlier work.
For experiment [4], the target named is T1, CaM. The conditions noted are these: complex formation; ref [49]; listed as Cx50-derived peptide; cited from earlier work.
For experiment [5], the system named is full-length Cx45 (mCx45-Rluc) interaction with Venus–CaM. Nature of the experiment: BRET assay of CaM–Cx45 interaction in live HEK293 cells. The format is cell-based, mouse (Cx45); rat (CaM). The conditions noted are these: 50 μM BAPTA-AM. In general terms: In BRET a luciferase serves as donor, and the signal depends on an acceptor being close.

Turning to “Cx44p132–153: α-family connexin Cx44 peptide”, in the experiment with CaM [1], the “binding mode to CaM (literature)” value is on record as “compact form”. In the case of `CN1CCN(CCCN2c3ccccc3Sc3ccc(C(F)(F)F)cc32)CC1` [trifluoperazine (TFP), trifluoperazine], the “effect on electrical uncoupling of amphibian embryonic cells” value in experiment [2] (ref [72]) is “protected amphibian embryonic cells from electrical uncoupling”. For the compound “Cx43p136–158: α-family connexin Cx43 peptide”, the “binding mode to CaM (literature)” value in the experiment with CaM [1] is “compact form”. In addition, the “chemical shift change pattern of CaM (literature)” value in the experiment with CaM [3] is “localized change”. In the case of “Cx50p141–166: α-family connexin Cx50 peptide (FRLEGTLLRTYICHIIFKTLFEVGFI; UniProt P48165 141-166, looked up, fragment)”, the “binding mode to CaM (literature)” value with CaM [1] is “embraced compact form”. Also, the “decrease in hydrodynamic radius of CaM” value with CaM [4] is reported as “decreased significantly”. Further, the “chemical shift change pattern of CaM (literature)” value in the experiment with CaM [3] is “localized change”. Turning to `CC(=O)OCOC(=O)CN(CC(=O)OCOC(C)=O)c1ccccc1OCCOc1ccccc1N(CC(=O)OCOC(C)=O)CC(=O)OCOC(C)=O` [BAPTA-AM], in experiment [5], the “intracellular Ca2+ after treatment” value was ~ 0.27 nM. Besides, the “BRET signal (ratio 525/460 nm) after treatment” value in experiment [5] (20 min) is given as ~ 0.03.

For `Cl.NCCCCCCNS(=O)(=O)c1cccc2c(Cl)cccc12` [W7, N-(6-aminohexyl)-5-chloro-1-naphthalenesulfonamide hydrochloride], the effect on uncoupling entry in experiment [2] was “prevent uncoupling”. Take `Clc1ccc(C(c2ccc(Cl)cc2)n2cc[n+](CC(OCc3ccc(Cl)cc3Cl)c3ccc(Cl)cc3Cl)c2)cc1` (centres unmarked) [calmidazolium]: in experiment [2], the effect on uncoupling entry is “prevent uncoupling”.

(Values after article PMC5976250 (The Biochemical journal, 2017).)
